Data: PubChem BioAssay (NCI)
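How tested: cells in 96-well plates exposed to compound for 48 hours at five concentrations. At the TGI there is no net growth.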

Assays:
Experiment in all cases: NCI-60 cell line screen, 48 h
[1] = tested on: DU-145 prostate
[2] = tested on: A498 renal
[3] = tested on: U251 CNS
[4] = tested on: T-47D breast
[5] = tested on: BT-549 breast
[6] = tested on: NCI/ADR-RES ovarian
[7] = tested on: SF-268 CNS
[8] = tested on: HOP-92 NSCLC
[9] = tested on: HT29 colon
[10] = tested on: NCI-H226 lung
[11] = tested on: LOX IMVI melanoma
[12] = tested on: SR leukemia
[13] = tested on: HS 578T breast
[14] = tested on: SK-MEL-2 melanoma
[15] = tested on: ACHN renal
[16] = tested on: MDA-MB-435
[17] = tested on: SK-MEL-5 melanoma
[18] = tested on: OVCAR-4 ovarian
[19] = tested on: IGROV1 ovarian
[20] = tested on: SK-OV-3 ovarian
[21] = tested on: RXF 393 renal
[22] = tested on: MDA-N
[23] = tested on: SNB-75 CNS
[24] = tested on: NCI-H460 lung
[25] = tested on: OVCAR-5 ovarian
[26] = tested on: UACC-257 melanoma
[27] = tested on: HL-60(TB) leukemia
[28] = tested on: SW-620 colon
[29] = tested on: RPMI-8226 leukemia
[30] = tested on: MCF7 breast
[31] = tested on: MOLT-4 leukemia
[32] = tested on: OVCAR-3 ovarian
[33] = tested on: SNB-19 CNS
[34] = tested on: CAKI-1 renal
[35] = tested on: M14 melanoma
[36] = tested on: PC-3 prostate
[37] = tested on: COLO 205 colon
[38] = tested on: OVCAR-8 ovarian
[39] = tested on: KM12 colon
[40] = tested on: 786-0 renal
[41] = tested on: UO-31 renal
[42] = tested on: TK-10 renal
[43] = tested on: A549 NSCLC
[44] = tested on: HCT-116 colon
[45] = tested on: SF-295 CNS
[46] = tested on: NCI-H522 lung
[47] = tested on: SN12C renal
[48] = tested on: EKVX NSCLC
[49] = tested on: CCRF-CEM leukemia
[50] = tested on: SF-539 CNS
[51] = tested on: HCT-15 colon
[52] = tested on: UACC-62 melanoma
[53] = tested on: MDA-MB-231 breast
[54] = tested on: NCI-H23 lung

Measured: TGI

Cn1c(-c2ccc(/C=N\N3CCN(/N=C/c4ccc(-c5c[n+]6ccccc6n5C)cc4)CC3)cc2)c[n+]2ccccc12
75 µM: [53]
60.9 µM: [21]
92.8 µM: [13]
56.9 µM: [27]
70.7 µM: [40]
84.6 µM: [8]
78.6 µM: [45]
42.8 µM: [2]
> 100 µM: all other assays above
